Measured values: patent publication US10213428B2, “(4-((3R,4R)-3-methoxytetrahydro-pyran-4-ylamino)piperidin-1-yl)(5-methyl-6-(((2R,6S)-6-(p-tolyl)tetrahydro-2H-pyran-2-yl)methylamino)pyrimidin-4-yl)methanone citrate” (Centrexion Therapeutics Corporation, priority 2015, dated 2019)
“Also recorded” adds a separate entry of the source.

Columns and labels:
[1] = Solubility, automated shake flask method with UV quantitation; type: physicochemical; conditions: for solubility at 2 h / solubility at 4 h / solubility at 6 h: thermodynamic from solid, room temperature
Experimental: Solubility was determined using an automated shake flask method (at room temperature) and quantitation of the dissolved drug substance was determined by UV-spectroscopy within this automated setup.

[2] = Dynamic vapour sorption (sorption isotherms, water uptake); type: physicochemical; conditions: for hygroscopic behavior: uptake of water: 25° C.
Source text: Sorption isotherms were generated using an IGAsorp water sorption monitor from Hiden Isochema. […] For BR salt form only: Sorption isotherms were registered on a DVS-1 water sorption monitor from Surface Measurement Systems.

[3] = X-ray powder diffraction: crystallinity and polymorphism; type: physicochemical; conditions: for indications for polymorphism: several crystallization experiments
Source text: X-ray powder diagrams were generated using a STOE-STADI P-diffractometer in transmission mode fitted with a MYTHEN-detector and a Cu-anode as X-ray source with monochromatic CuKα1 radiation (λ=1.54056 Å, 40 kV, 40 mA).

[4] = ThermoGravimetry (loss on drying); type: physicochemical; conditions: TG
Source text: Thermal gravimetry data were collected with a TG instrument from the Q-series of TA Instruments. This method measures weight changes in a material as a function of temperature under a controlled atmosphere.

[5] = Oral pharmacokinetics in rat; type: in vivo, Wistar(Han) rats; conditions: oral dose 20 μmol/kg of citrate salt 1, mean values
Source text: The pharmacokinetics of the test compound following single intravenous (IV) or oral (PO) doses were examined in • female BALB/c mice (average weight: 25 g) • male Wistar(Han) rats (average weight: 260 g) • male and female Göttingen Minipigs (average weight: 24 kg) • male beagle dogs (average weight: 15 kg) All non-rodent species were fasted overnight prior to dosing, while mice and rats had food and water available ad libitum. The p.o. dose of the compound was usually administered as suspension in 0.5% Natrosol or as a 0.5% Natrosol/0.015% Tween 80 suspension. For i.v. dosing purposes, the doses were applied as a solution in 0.9% NaCL, or as a solution containing 9.1% HP-beta Cyclodextrin in water.
Blood was collected by venous sampling and soaking of the blood in EDTA coated tubes. Samples were collected for up to 48 h after administration of the test compound. Plasma was then separated by centrifugation (5 min by approximately 9000 g at 4° C.). For determination of the test compound, plasma was transferred into PCR plates. All samples were stored at approximately −20° C. until bioanalytics. The test compound concentrations in plasma were determined by HPLC MS/MS. The lower limit of quantification was between 0.5 nmol/L and 1 nmol/L.

[6] = listed as Citrate salt, citrate
[7] = male, Wistar(Han), plasma, 20 umol/kg

CO[C@H]1COCC[C@H]1NC1CCN(C(=O)c2ncnc(NC[C@H]3CCC[C@@H](c4ccc(C)cc4)O3)c2C)CC1.O=C(O)CC(O)(CC(=O)O)C(=O)O [citrate salt 1, (4-((3R,4R)-3-methoxytetrahydro-pyran-4-ylamino)piperidin-1-yl)(5-methyl-6-(((2R,6S)-6-(p-tolyl)tetrahydro-2H-pyran-2-yl)methylamino)pyrimidin-4-yl)methanone citrate]
solubility at 2 h ([1]; Sörensen buffer, aqueous buffer, Sörensen pH 10, 2 h): > 1000 µg/mL | solubility at 4 h ([1]; Sörensen buffer, aqueous buffer, Sörensen pH 10, 4 h): > 1000 µg/mL | solubility at 6 h ([1]; Sörensen buffer, aqueous buffer, Sörensen pH 10, 6 h): > 1000 µg/mL | Solubility in aqueous media (in words) ([1]; acidic, neutral and basic aqueous media): highly soluble | solubility at 2 h ([1]; aqueous buffer, 0.1N NaOH, 2 h): > 1000 µg/mL | solubility at 4 h ([1]; aqueous buffer, 0.1N NaOH, 4 h): > 1000 µg/mL | solubility at 6 h ([1]; aqueous buffer, 0.1N NaOH, 6 h): > 1000 µg/mL | solubility at 2 h ([1]; aqueous buffer, KH2PO4-buffer pH 7.4, 2 h): > 1000 µg/mL | solubility at 4 h ([1]; aqueous buffer, KH2PO4-buffer pH 7.4, 4 h): > 1000 µg/mL | solubility at 6 h ([1]; aqueous buffer, KH2PO4-buffer pH 7.4, 6 h): > 1000 µg/mL | solubility at 2 h ([1]; aqueous buffer, McIlvaine buffer pH 2.2, 2 h): > 1000 µg/mL | solubility at 4 h ([1]; aqueous buffer, McIlvaine buffer pH 2.2, 4 h): > 1000 µg/mL | solubility at 6 h ([1]; aqueous buffer, McIlvaine buffer pH 2.2, 6 h): > 1000 µg/mL | solubility at 2 h ([1]; aqueous buffer, McIlvaine buffer pH 3.0, 2 h): > 1000 µg/mL | solubility at 4 h ([1]; aqueous buffer, McIlvaine buffer pH 3.0, 4 h): > 1000 µg/mL | solubility at 6 h ([1]; aqueous buffer, McIlvaine buffer pH 3.0, 6 h): > 1000 µg/mL | solubility at 2 h ([1]; aqueous buffer, McIlvaine buffer pH 4.0, 2 h): > 1000 µg/mL | solubility at 4 h ([1]; aqueous buffer, McIlvaine buffer pH 4.0, 4 h): > 1000 µg/mL | solubility at 6 h ([1]; aqueous buffer, McIlvaine buffer pH 4.0, 6 h): > 1000 µg/mL | solubility at 4 h ([1]; aqueous buffer, McIlvaine buffer pH 4.5, 4 h): > 1000 µg/mL | solubility at 6 h ([1]; aqueous buffer, McIlvaine buffer pH 4.5, 6 h): > 1000 µg/mL | solubility at 2 h ([1]; aqueous buffer, McIlvaine buffer pH 5.0, 2 h): > 1000 µg/mL | solubility at 4 h ([1]; aqueous buffer, McIlvaine buffer pH 5.0, 4 h): > 1000 µg/mL | solubility at 6 h ([1]; aqueous buffer, McIlvaine buffer pH 5.0, 6 h): > 1000 µg/mL | solubility at 2 h ([1]; aqueous buffer, McIlvaine buffer pH 6.0, 2 h): > 1000 µg/mL | solubility at 4 h ([1]; aqueous buffer, McIlvaine buffer pH 6.0, 4 h): > 1000 µg/mL | solubility at 6 h ([1]; aqueous buffer, McIlvaine buffer pH 6.0, 6 h): > 1000 µg/mL | solubility at 2 h ([1]; aqueous buffer, McIlvaine buffer pH 6.8, 2 h): > 1000 µg/mL | solubility at 4 h ([1]; aqueous buffer, McIlvaine buffer pH 6.8, 4 h): > 1000 µg/mL | solubility at 6 h ([1]; aqueous buffer, McIlvaine buffer pH 6.8, 6 h): > 1000 µg/mL | solubility at 2 h ([1]; aqueous buffer, McIlvaine buffer pH 7.4, 2 h): > 1000 µg/mL | solubility at 4 h ([1]; aqueous buffer, McIlvaine buffer pH 7.4, 4 h): > 1000 µg/mL | solubility at 6 h ([1]; aqueous buffer, McIlvaine buffer pH 7.4, 6 h): > 1000 µg/mL | solubility at 2 h ([1]; organic solvent or mixture, EtOH, 2 h): 9200 µg/mL | solubility at 4 h ([1]; organic solvent or mixture, EtOH, 4 h): 9800 µg/mL | solubility at 6 h ([1]; organic solvent or mixture, EtOH, 6 h): 10000 µg/mL | solubility at 2 h ([1]; simulated gastric fluid, 0.01N HCl, 2 h): > 1000 µg/mL | solubility at 4 h ([1]; simulated gastric fluid, 0.01N HCl, 4 h): > 1000 µg/mL | solubility at 6 h ([1]; simulated gastric fluid, 0.01N HCl, 6 h): > 1000 µg/mL | solubility at 2 h ([1]; simulated gastric fluid, 0.1N HCl, 2 h): > 1000 µg/mL | solubility at 4 h ([1]; simulated gastric fluid, 0.1N HCl, 4 h): > 1000 µg/mL | solubility at 6 h ([1]; simulated gastric fluid, 0.1N HCl, 6 h): > 1000 µg/mL | solubility at 2 h ([1]; Water, 2 h): > 1000 µg/mL | solubility at 4 h ([1]; Water, 4 h): > 1000 µg/mL | solubility at 6 h ([1]; Water, 6 h): > 1000 µg/mL | physical state after sorption experiment / at higher relative humidity ([2]; higher relative humidity, other salts starting at 60-70% relative humidity): still remains as solid material | hygroscopic behavior: uptake of water ([2]; up to 80% r.h. (humidity range 10-80%), citrate): 2.6% | hygroscopic behavior: uptake of water ([2]; up to 80% r.h. (humidity range 10-80%), listed as Citrate salt, citrate): 2.6% | hygroscopic behavior: uptake of water ([2]; up to 80% r.h. (humidity range 10-80%), listed as citrate, citrate): 2.6% | hygroscopic behavior: uptake of water ([2]; up to 90% r.h., citrate): 3.4% | hygroscopic behavior: uptake of water ([2]; up to 90% r.h., listed as Citrate salt, citrate): 3.4% | crystallinity ([3]; listed as Citrate salt 1, citrate): highly crystalline | crystallinity [3, 6]: high | indications for polymorphism [3, 6]: no | indications for polymorphism ([3]; listed as citrate, citrate): Only one crystalline form; also recorded: only one polymorphic form | loss on drying [4]: 1.6% | AUC(0-inf) [5, 7]: 1.71 µM·h | Cmax [5, 7]: 454 nM | Tmax [5, 7]: 1.08 h | MRTtot [5]: 3.3 h

CO[C@H]1COCC[C@H]1NC1CCN(C(=O)c2ncnc(NC[C@H]3CCC[C@@H](c4ccc(C)cc4)O3)c2C)CC1.Cl [hydrochloride salt of compound I, (4-((3R,4R)-3-methoxytetrahydro-pyran-4-ylamino)piperidin-1-yl)(5-methyl-6-(((2R,6S)-6-(p-tolyl)tetrahydro-2H-pyran-2-yl)methylamino)pyrimidin-4-yl)methanone hydrochloride]
hygroscopic behavior: uptake of water ([2]; up to 80% r.h. (humidity range 10-80%), hydrochloride): 15% | hygroscopic behavior: uptake of water ([2]; up to 80% r.h. (humidity range 10-80%), listed as Hydrochloride Salt, hydrochloride): 15% uptake | hygroscopic behavior: deliquescence ([2]; up to 80% r.h., listed as Hydrochloride Salt, hydrochloride): deliquescent | hygroscopic behavior: deliquescence ([2]; up to 80% r.h., listed as hydrochloride, hydrochloride): irreversibly deliquescent | hygroscopic behavior: deliquescence ([2]; up to 90% r.h.): deliquescent | hygroscopic behavior: uptake of water ([2]; up to 90% r.h.): 40% uptake | crystallinity ([3]; hydrochloride): medium | crystallinity ([3]; listed as hydrochloride salt of compound of formula (I), hydrochloride): medium crystallinity | indications for polymorphism ([3]; listed as Hydrochloride Salt, hydrochloride): yes | indications for polymorphism ([3]; listed as hydrochloride, hydrochloride): Different polymorphic modifications | loss on drying [4]: 2.8%
